# Laboratory results as given in article PMC5940828, “Analysis of β-tubulin-carbendazim interaction reveals that binding site for MBC fungicides does not include residues involved in fungicide resistance” (Scientific Reports, 2018).
# Target: T1, P. xanthii β-tubulin (TUB2), MBC-sensitive (E198) (Podosphaera fusca, UniProt M4QC09)
# T1 construct: β-tubulin alone without α-tubulin; E198 allele
# Assay: intrinsic tryptophan fluorescence quenching, modified Stern-Volmer
# Type: binding
# Conditions: double-log; n = 1.41; excitation 295 nm; carbendazim dosed as commercial 50% water-dispersible formulation (Maypon Flow)
# From the text: intrinsic tryptophan fluorescence quenching, modified Stern-Volmer on P. xanthii β-tubulin (TUB2), MBC-sensitive (E198)
# T1 sequence (M4QC09 1-447): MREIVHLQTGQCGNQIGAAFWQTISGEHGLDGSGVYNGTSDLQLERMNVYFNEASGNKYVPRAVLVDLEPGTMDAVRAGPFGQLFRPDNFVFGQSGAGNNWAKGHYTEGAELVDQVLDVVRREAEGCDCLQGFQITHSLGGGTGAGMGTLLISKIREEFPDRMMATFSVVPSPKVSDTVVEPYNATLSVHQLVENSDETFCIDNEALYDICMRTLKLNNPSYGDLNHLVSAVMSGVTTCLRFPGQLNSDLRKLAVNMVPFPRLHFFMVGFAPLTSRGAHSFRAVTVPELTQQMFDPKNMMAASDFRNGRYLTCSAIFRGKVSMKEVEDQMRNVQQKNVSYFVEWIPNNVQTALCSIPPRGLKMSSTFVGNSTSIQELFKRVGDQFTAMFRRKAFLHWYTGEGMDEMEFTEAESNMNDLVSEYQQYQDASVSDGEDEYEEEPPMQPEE
structure (smiles),measurement,value
"COC(=O)Nc1nc2ccccc2[nH]1 [carbendazim, methyl-2-benzimidazole carbamate]",K^b,1380 M⁻¹
